By inhibition is commonly meant the relative decrease from the control value, in per cent. High values mean a response far below the control, low ones a response near the control.

The values below come from patent US6743809B2, “Indole Derivatives useful for the treatment of CNS disorders” (H. Lundbeck A/S, priority 2000, dated 2004).

In this assay the target is T1, human cloned dopamine D4.2 receptors (Homo sapiens, UniProt P21917, DEL265-296).
T1 construct: expressed in transfected cells; host or cells: CHO cells
T1 sequence (P21917 with tags, fused parts or gaps DEL265-296): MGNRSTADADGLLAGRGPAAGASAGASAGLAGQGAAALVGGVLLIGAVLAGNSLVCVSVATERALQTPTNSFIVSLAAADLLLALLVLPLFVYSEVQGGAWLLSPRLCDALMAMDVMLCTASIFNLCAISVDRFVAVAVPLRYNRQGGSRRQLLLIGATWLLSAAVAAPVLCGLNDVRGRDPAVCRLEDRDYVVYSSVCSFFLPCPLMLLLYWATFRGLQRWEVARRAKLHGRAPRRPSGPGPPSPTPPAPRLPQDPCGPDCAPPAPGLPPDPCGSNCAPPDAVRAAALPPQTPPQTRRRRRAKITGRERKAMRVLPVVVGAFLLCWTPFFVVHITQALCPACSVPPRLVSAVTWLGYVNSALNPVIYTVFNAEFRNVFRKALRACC
The experiment in a line: Inhibition of the binding of [3H]YM-09151-2 to human dopamine D4 receptors. The note with it: 50 nM compound; [3H]YM-09151-2 0.06 nM; membranes of CHO-cells. The procedure:
Inhibition of the Binding of [^3H]YM-09151-2 to Human Dopamine D4 Receptors
By this method, the inhibition by drugs of the binding of [^3H]YM-09151-2 (0.06 nM) to membranes of human cloned dopamine D4.2 receptors expressed in CHO-cells is determined in vitro. The method is modified from NEN Life Science Products, Inc., technical data certificate PC2533-10/96.
`Cc1ccc(NC(=O)CCc2ccccc2)cc1CCN1CCC(c2c[nH]c3ccc(F)cc23)CC1` [Compound 3l, 3-(1-{2-[2-Methyl-5-(3-phenylpropanoylamino)phenyl]ethyl}piperidin-4-yl)-5-fluoro-1H-indole] yielded an inhibition at 0.05 µM of 74%.
The compound `Cc1ccc(NC(=O)N(C)c2ccccc2)cc1CCN1CCC(c2c[nH]c3cc(Cl)ccc23)CC1` [Compound 3n, 3-(1-{2-[2-Methyl-5-(3-Methyl-3-phenylureido)phenyl]ethyl}piperidin-4-yl)-6-chloro-1H-indole] showed an inhibition at 0.05 µM of 76%.
On the same count and under the same terms, under `Cc1ccc(NC(=O)c2cccs2)cc1CCN1CCC(c2c[nH]c3ccc(F)cc23)CC1` [Compound 3e, 3-(1-{2-[2-Methyl-5-(thiophen-2-ylmethanoylamino)phenyl]ethyl}piperidin-4-yl)-5-fluoro-1H-indole] stands 89%; under `Cc1ccc(NC(=O)Nc2ccc(F)cc2)cc1CCN1CCC(c2c[nH]c3ccc(F)cc23)CC1` [Compound 3y, 3-[1-(2-{5-[3-(4-Fluorophenyl)ureido]-2-methylphenyl}ethyl)piperidin-4-yl]-5-fluoro-1H-indole], 83%; under `CC(=O)Nc1ccc(C)c(CCN2CCC(c3c[nH]c4ccc(F)cc34)CC2)c1` [Compound 3a, 3-(1-{2-[5-(Acetylamino)-2-methylphenyl]ethyl}piperidin-4-yl)-5-fluoro-1H-indole], 83%.
The same measure, in the same setting: with `Cc1ccc(C(=O)Nc2ccc(C)c(CCN3CCC(c4c[nH]c5c(Cl)cccc45)CC3)c2)cc1` [Compound 3af, 3-(1-{2-[2-Methyl-5-(4-methylbenzoylamino)phenyl]ethyl}piperidin-4-yl)-7-chloro-1H-indole] the figure was 90%.
Same read-out and setting: with `Cc1ccc(NC(=O)c2cnns2)cc1CCN1CCC(c2c[nH]c3c(Cl)cccc23)CC1` [Compound 4k, 3-[1-(2-{2-Methyl-5-[(1-[1,2,3]thiadiazol-5-ylmethanoyl)amino]phenyl}ethyl)piperidin-4-yl]-7-chloro-1H-indole] the figure was 67%.
`Cc1ccc(NC(=O)c2cccs2)cc1CCN1CCC(c2c[nH]c3ccc(Cl)cc23)CC1` [Compound 3b, 3-(1-{2-[2-Methyl-5-(thiophen-2-ylmethanoylamino)phenyl]ethyl}piperidin-4-yl)-5-chloro-1H-indole] gave an inhibition at 0.05 µM of 86%.
On to `Cc1ccc(NC(=O)c2cccnc2)cc1CCN1CCC(c2c[nH]c3ccc(F)cc23)CC1` [Compound 3k, 3-(1-{2-[2-Methyl-5-(pyridin-3-ylmethanoylamino)phenyl]ethyl}piperidin-4-yl)-5-fluoro-1H-indole], for which the inhibition at 0.05 µM worked out at 91%.
Still for that read-out and setting: with `COc1cccc(C(=O)Nc2ccc(C)c(CCN3CCC(c4c[nH]c5ccc(Cl)cc45)CC3)c2)c1` [Compound 3c, 3-(1-{2-[2-Methyl-5-(3-methoxybenzoylamino)phenyl]ethyl}piperidin-4-yl)-5-chloro-1H-indole] the figure was 68%; with `Cc1ccc(NC(=O)C2CC2)cc1CCN1CCC(c2c[nH]c3c(Cl)cccc23)CC1` [Compound 3ag, 3-(1-{2-[5-(Cyclopropylmethanoylamino)-2-methylphenyl]ethyl}piperidin-4-yl)-7-chloro-1H-indole], 95%.
Still for that read-out and setting: with `Cc1ccc(NC(=O)CCC2CCCCC2)cc1CCN1CCC(c2c[nH]c3ccc(F)cc23)CC1` [Compound 3ac, 3-(1-{2-[5-(3-Cyclohexylpropanoylamino)-2-methylphenyl]ethyl}piperidin-4-yl)-5-fluoro-1H-indole] the figure was 97%; with `Cc1ccc(NC(=O)c2ccsc2)cc1CCN1CCC(c2c[nH]c3c(Cl)cccc23)CC1` [Compound 4j, 3-[1-(2-{2-Methyl-5-[(thiophen-3-ylmethanoyl)amino]phenyl}ethyl)piperidin-4-yl]-7-chloro-1H-indole], 48%.
Consider `Cc1ccc(NC(=O)N2CCOCC2)cc1CCN1CCC(c2c[nH]c3ccc(F)cc23)CC1` [Compound 3x, 3-(1-{2-[2-Methyl-5-(morfolin-4-ylmethanoylamino)phenyl]ethyl}piperidin-4-yl)-5-fluoro-1H-indole], for which the “% inhibition of binding at 50 nM” value is 90%.
The compound `Cc1ccc(NC(=O)C2CC2)cc1CCN1CCC(c2c[nH]c3ccc(F)cc23)CC1` [Compound 3d, 3-(1-{2-[5-(Cyclopropylmethanoylamino)-2-methylphenyl]ethyl}piperidin-4-yl)-5-fluoro-1H-indole] showed an inhibition at 0.05 µM of 89%.
In turn, `Cc1ccc(NC(=O)C(C)C)cc1CCN1CCC(c2c[nH]c3cc(Cl)ccc23)CC1` [Compound 3q, 3-(1-{2-[5-(Isobutanoylamino)-2-methylphenyl]ethyl}piperidin-4-yl)-6-chloro-1H-indole] displayed an inhibition at 0.05 µM of 97%.
The same measure, in the same setting: under `Cc1ccc(NC(=O)c2ccncc2)cc1CCN1CCC(c2c[nH]c3c(Cl)cccc23)CC1` [Compound 4h, 3-[1-(2-{2-Methyl-5-[(pyridin-4-ylmethanoyl)amino]phenyl}ethyl)piperidin-4-yl]-7-chloro-1H-indole] stands 73%; under `Cc1ccc(NC(=O)C2CC2)cc1CCN1CCC(c2c[nH]c3cc(Cl)ccc23)CC1` [Compound 3o, 3-(1-{2-[5-(Cyclopropylmethanoylamino)-2-methylphenyl]ethyl}piperidin-4-yl)-6-chloro-1H-indole], 99%; under `Cc1ccc(NC(=O)c2ccccc2)cc1CCN1CCC(c2c[nH]c3c(Cl)cccc23)CC1` [Compound 4d, 3-(1-{2-[5-(benzoylamino)-2-Methylphenyl]ethyl}piperidin-4-yl)-7-chloro-1H-indole], 48%.
As to `Cc1ccc(NC(=O)C(C)(C)C)cc1CCN1CCC(c2c[nH]c3ccc(F)cc23)CC1` [Compound 3g, 3-(1-{2-[2-Methyl-5-(pivaloylamino)phenyl]ethyl}piperidin-4-yl)-5-fluoro-1H-indole], the inhibition at 0.05 µM was determined as 86%.
On the same count and under the same terms, under `Cc1ccc(NC(=O)C2CCOCC2)cc1CCN1CCC(c2c[nH]c3ccc(F)cc23)CC1` [Compound 3aa, 3-(1-{2-[2-Methyl-5-(tetrahydropyran-4-ylmethanoylamino)phenyl]ethyl}piperidin-4-yl)-5-fluoro-1H-indole] stands 96%; under `COc1ccc(C(=O)Nc2ccc(C)c(CCN3CCC(c4c[nH]c5c(Cl)cccc45)CC3)c2)cc1` [Compound 4f, 3-(1-{2-[5-(4-Methoxybenzoylamino)-2-methylphenyl]ethyl}piperidin-4-yl)-7-chloro-1H-indole], 48%.
Still for that read-out and setting: under `CCCCCC(=O)Nc1ccc(C)c(CCN2CCC(c3c[nH]c4c(Cl)cccc34)CC2)c1` [Compound 3z, 3-(1-{2-[5-(Hexanoylamino)-2-methylphenyl]ethyl}piperidin-4-yl)-7-chloro-1H-indole] stands 91%; under `COc1cccc(C(=O)Nc2ccc(C)c(CCN3CCC(c4c[nH]c5cc(Cl)ccc45)CC3)c2)c1` [Compound 3r, 3-(1-{2-[5-(3-Methoxybenzoylamino)-2-methylphenyl]ethyl}piperidin-4-yl)-6-chloro-1H-indole], 88%.
Still for that read-out and setting: under `COc1ccc(CC(=O)Nc2ccc(C)c(CCN3CCC(c4c[nH]c5cc(Cl)ccc45)CC3)c2)cc1` [Compound 3t, 3-[1-(2-{5-[2-(4-Methoxyphenyl)ethanoylamino]-2-methylphenyl}ethyl)piperidin-4-yl]-6-chloro-1H-indole] stands 75%.
Take `COc1cccc(C(=O)Nc2ccc(C)c(CCN3CCC(c4c[nH]c5ccc(F)cc45)CC3)c2)c1` [Compound 3j, 3-(1-{2-[5-(3-Methoxybenzoylamino)-2-methylphenyl]ethyl}piperidin-4-yl)-5-fluoro-1H-indole]: the inhibition at 0.05 µM is 90%.
Same read-out and setting: with `Cc1ccc(C(=O)Nc2ccc(C)c(CCN3CCC(c4c[nH]c5cc(Cl)ccc45)CC3)c2)cc1` [Compound 3u, 3-(1-{2-[2-Methyl-5-(4-methylbenzoylamino)phenyl]ethyl}piperidin-4-yl)-6-chloro-1H-indole] the figure was 86%; with `CCCCCC(=O)Nc1ccc(C)c(CCN2CCC(c3c[nH]c4ccc(F)cc34)CC2)c1` [Compound 3h, 3-(1-{2-[5-(Hexanoylamino)-2-methylphenyl]ethyl}piperidin-4-yl)-5-fluoro-1H-indole], 83%.
`Cc1ccc(NC(=O)c2ccc(Cl)cc2)cc1CCN1CCC(c2c[nH]c3c(Cl)cccc23)CC1` [Compound 3ab, 3-(1-{2-[5-(4-Chlorobenzoylamino)-2-methylphenyl]ethyl}piperidin-4-yl)-7-chloro-1H-indole]: the inhibition at 0.05 µM was found to be 79%.
Still for that read-out and setting: under `Cc1ccc(NC(=O)C2CCCC2)cc1CCN1CCC(c2c[nH]c3cc(Cl)ccc23)CC1` [Compound 3v, 3-[1-(2-{5-[(Cyclopentylmethanoyl)amino]-2-methylphenyl}ethyl)piperidin-4-yl]-6-chloro-1H-indole] stands 95%; under `Cc1ccc(NC(=O)c2cccnc2)cc1CCN1CCC(c2c[nH]c3cc(Cl)ccc23)CC1` [Compound 3s, 3-(1-{2-[2-Methyl-5-(pyridin-3-ylmethanoylamino)phenyl]ethyl}piperidin-4-yl)-6-chloro-1H-indole], 92%.
